This note sets out measurements from US10716797B2, “Steroid alkaloids and compositions and kits thereof” (priority 2013, dated 2020).

Assay [1] concerns methicillin-resistant Staphylococcus aureus (MRSA) strains. The assay is described as follows: MIC against MRSA strains. In kind it is cell-based. The procedure:
Method. The minimal inhibitory concentrations (MICs), (i.e. lowest concentration of an antimicrobial that will inhibit the visible growth of a microorganism after incubation), of test compounds were determined against the normal or SCV strains of bacterial species from the Firmicutes phylum. Briefly, MICs were determined using the microdilution method in 96-well plates (Clinical and Laboratory Standards Institute (CLSI), 2011). Bacteria were inoculated at ˜10^5-10^6 CFU/mL and incubated at 35° C. for 20 h (normal strains) or 48 h (SCVs) in brain heart infusion (BHI) broth in order to allow SCVs to reach maximal growth as previously described (Mitchell et al., 2012). Then OD595 nm was read on a microplate reader. […] In this example the range of compound concentrations tested was 0.03 to 64 μg/ml using doubling increments. Strain Staphylococcus aureus NewbouldΔhemB (hemB) was also used in the experiments and is a laboratory-derived stable SCV created by the insertion of the macrolide resistance gene ermA in the hemB gene of this strain to create the SCV phenotype (defective electron transport chain and respiratory deficiency) through inactivation of hemin biosynthesis (Brouillette et al., 2004).
In the present Example the range of compound concentrations tested, using doubling increments, was 0.03 to 64 μg/ml for Compound 14 and up to 1024 μg/ml for gentamicin (GEN), kanamycin (KAN) and cefalexin (CEF) when these compounds were used alone. Compound 14 (Cpd 14) was used at a fixed concentration of 4 μg/ml when added to other antibiotics. The combination of CEF and KAN was used in a 3:2 ratio and doubling increments were used to test the antibacterial activity against MRSA in the absence or presence of Compound 14.

Assay [2] has as its system S. aureus SCV strain hemB. The experiment in a line: Murine lung infection (pneumonia) model. The format is in vivo, mouse. Particulars: mice; intratracheal, 4 h post-infection; lungs 24 h post-infection; hydrochloride. On the procedure: Compound efficacy in a lung infection (pneumonia) model was evaluated as follow (Ragle et al, 2010; Mitchell et al, 2013): Mice (36) were challenged with an intra-tracheal injection of S. aureus SCV strain hemB (10^7 CFU) (10^7 CFU) (normal S. aureus could also have been used, mixed or not with P. aeruginosa for a co-infection). […] More particularly, 11 mice were untreated (Unrteated); 4 mice were treated with 10 μg of tomatidine (TO (10)); 4 mice were treated with 100 μg of tomatidine (TO (100)); 3 mice were treated with 10 μg of compound 14 (Compound 14 (10)); 8 mice were treated with 100 μg of compound 14 (Compound 14 (100)); and 6 mice were treated with 200 μg of compound 14 (Compound 14 (200)). Mice were euthanized 24 h post-infection. The lungs were recovered, homogenized, and bacterial CFU per g of tissue were determined by plating appropriate dilutions on Brain Hearth Infusion agar media (other media such as for example, mannitol salt agar for S. aureus or cetrimide plates for P. aeruginosa could be used).
Each dot represents the CFU per g of tissue for one mouse. The boxes represent the CFU data distribution, the first quartile, the median and the third quartile. Statistical differences (P<0.001) between CFU recovered from treated and untreated animals are shown by asterisks (non-parametric Kruskal-Wallis ANOVA with Dunn's post test).

Another assay concerns S. aureus hemB (SaR2). The experiment in a line: MIC against tomatidine-resistant SCV mutant SaR2. In kind it is cell-based, Staphylococcus aureus. On the procedure: At each passage, using a microdilution method in 96-well microplates, S. aureus hemB was inoculated at ˜10^5-10^6 CFU/ml and incubated at 35° C. for 48 h. The range of tomatidine concentrations tested was 0.03 to 64 μg/ml using doubling increments. The concentration of gentamicin was fixed at 4 μg/mL when it was used in combination with tomatidine. At each passage, the minimal inhibitory concentrations (MICs) (i.e. lowest concentration of an antimicrobial that inhibits the visible growth of bacteria), of tomatidine was determined. The bacteria used as inoculum for the next passage were from the well preceeding the well showing the MIC (i.e. the well containing half the MIC). At each passage, the population of bacteria serving as the inoculum for the next passage was spread on BHI agar plates and three isolated colonies were collected and frozen until used for whole-genome sequencing.

“Also recorded” adds a separate entry of the source.

Regarding “3-(N-aminoethyl)-aminotomatidine hydrochloride [Compound 14]”, in assay [1] (MRSA strains resistant to both cefalexin and kanamycin), the “potentiation fold on addition of Compound 14 to cefalexin:kanamycin combination” value is given as 32 fold. Moreover, the “MIC on MRSA strains” value in assay [1] (used alone, tested MRSA strains (kanamycin: two of the strains)) came to 16 µg/mL. Besides, the “bacterial load in lungs (CFU per g of tissue)” value in assay [2] is listed as “significantly reduce the bacterial load; also recorded: superior to tomatidine hydrochloride salt”. In addition, in the assay on S. aureus hemB (SaR2) (mutant SaR2), the “Fold increase in resistance (MIC for mutant / MIC for NewbouldΔhemB)” value amounted to 8 fold. In addition, in the assay on S. aureus hemB (SaR2) (tomatidine-resistant mutant SaR2), the MIC (usually the lowest concentration that inhibits growth of the organism) is 4 µg/mL.
